What was measured:
Cannabinoid receptor 1 = Cannabinoid receptor 1 (Homo sapiens, UniProt P21554); assay: (§1) cAMP Assay: CHO cells expressing human CB1 or CB2 receptors are seeded 17-24 hours prior to the experiment 50.000 cells per well in a black 96 well plate with flat clear bottom (Corning Costar #3904) in DMEM (Invitrogen No. 31331), 1×HT supplement, with 10% fetal calf serum and incubated at 5% CO2 and 37 °C. in a humidified incubator. The growth medium was exchanged with Krebs Ringer Bicarbonate buffer with 1 mM IBMX and incubated at 30 °C. for 30 min. Compounds were added to a final assay volume of 100 μl and incubated for 30 min at 30 °C. Using the cAMP-Nano-TRF detection kit the assay (Roche Diagnostics) was stopped by the addition of 50 μl lysis reagent (Tris, NaCl, 1.5% Triton X100, 2.5% NP40, 10% NaN3) and 50 μl detection solutions (20 μM mAb Alexa700-cAMP 1:1, and 48 μM Ruthenium-2-AHA-cAMP) and shaken for 2 h at room temperature. The time-resolved energy transfer is measured by a TRF reader (Evotec Technologies GmbH), equipped with a ND:YAG laser as excitation source. The plate is measured twice with the excitation at 355 nm and at the emission with a delay of 100 ns and a gate of 100 ns, total exposure time 10 s at 730 (bandwidth 30 nm) or 645 nm (bandwidth 75 nm), respectively. The FRET signal is calculated as follows: FRET=T730-Alexa730-P(T645-B645) with P=Ru730-B730/Ru645-B645, where T730 is the test well measured at 730 nM, T645 is the test well measured at 645 nm, B730 and B645 are the buffer controls at 730 nm and 645 nm, respectively. cAMP content is determined from the function of a standard curve spanning from 10 μM to 0.13 nM cAMP.; assay type: functional, cell-based
Cannabinoid receptor 1, sequence (P21554 whole entry): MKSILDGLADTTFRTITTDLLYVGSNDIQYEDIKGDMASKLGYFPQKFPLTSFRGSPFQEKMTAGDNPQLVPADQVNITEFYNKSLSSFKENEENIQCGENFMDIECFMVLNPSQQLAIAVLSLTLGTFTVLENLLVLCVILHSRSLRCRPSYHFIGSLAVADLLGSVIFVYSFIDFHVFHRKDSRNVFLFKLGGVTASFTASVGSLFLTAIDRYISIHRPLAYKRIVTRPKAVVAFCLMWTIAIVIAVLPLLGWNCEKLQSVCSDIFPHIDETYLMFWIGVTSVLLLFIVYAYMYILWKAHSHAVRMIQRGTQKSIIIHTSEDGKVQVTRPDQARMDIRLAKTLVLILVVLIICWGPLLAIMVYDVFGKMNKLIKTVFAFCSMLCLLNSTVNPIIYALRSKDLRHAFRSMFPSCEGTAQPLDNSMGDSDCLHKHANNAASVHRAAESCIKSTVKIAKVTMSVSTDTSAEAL

Cannabinoid receptor 2 = Cannabinoid receptor 2 (Homo sapiens, UniProt P34972); assay: as §1; assay type: functional, cell-based
Cannabinoid receptor 2, sequence (P34972 whole entry): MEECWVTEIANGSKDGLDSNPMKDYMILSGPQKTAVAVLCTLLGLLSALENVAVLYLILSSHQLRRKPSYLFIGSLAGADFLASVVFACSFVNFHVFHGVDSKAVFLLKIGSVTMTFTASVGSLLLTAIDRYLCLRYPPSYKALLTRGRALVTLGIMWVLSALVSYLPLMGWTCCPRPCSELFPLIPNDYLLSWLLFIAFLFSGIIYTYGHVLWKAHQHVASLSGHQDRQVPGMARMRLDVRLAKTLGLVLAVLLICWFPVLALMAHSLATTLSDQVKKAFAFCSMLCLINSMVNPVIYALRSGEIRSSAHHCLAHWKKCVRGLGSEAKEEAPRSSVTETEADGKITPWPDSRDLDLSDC

`CC(C)N(C(=O)c1ccc(N2CC(F)(F)C2)c(OCC2CC2)n1)C(C)C` gave an EC50 (Cannabinoid receptor 1) of over 10000 nM and an EC50 (Cannabinoid receptor 2) of 12.6 nM.
`CC1(C)CC(C(N)=O)N(C(=O)c2ccc(N3CC(F)(F)C3)c(OCC3CC3)n2)C1` (stereo not drawn) was tested, and the EC50 (Cannabinoid receptor 2) was 6.6 nM.

From ChEMBL document CHEMBL3886637, “Pyridine-2-amides useful as CB2 agonists” (2016)
